According to US20250074871A1, “PHENETHYLAMINES AND METHODS OF PREPARATION THEREOF” (priority 2022, published 2025):
pEC50, pIC50: −log10 of the molar value. Values joined by “and” are separate entries in the source; they are usually repeats but may differ in a detail not shown here. Equal values may be shown once. Read-outs that look alike come from different tables or passages of the source.

Key:
5-HT2B receptor = target: T1, 5-HT2B receptor (Homo sapiens, UniProt P41595); assay: 5-HT2B Gq dissociation BRET functional assay; type: cell-based; details: for 5-HT2B BRET Eff %: normalized to % 5-HT stimulation
T1 construct: expressed in transfected cells; host or cells: HEK293T

5-HT2C receptor = target: T2, 5-HT2C receptor (Homo sapiens, UniProt P28335); assay: cell-based; type: cell-based; details: for 5-HT2C BRET Eff %: normalized to % 5-HT stimulation
T2 construct: expressed in transfected cells; host or cells: HEK293T
T2 sequence (P28335 33-458): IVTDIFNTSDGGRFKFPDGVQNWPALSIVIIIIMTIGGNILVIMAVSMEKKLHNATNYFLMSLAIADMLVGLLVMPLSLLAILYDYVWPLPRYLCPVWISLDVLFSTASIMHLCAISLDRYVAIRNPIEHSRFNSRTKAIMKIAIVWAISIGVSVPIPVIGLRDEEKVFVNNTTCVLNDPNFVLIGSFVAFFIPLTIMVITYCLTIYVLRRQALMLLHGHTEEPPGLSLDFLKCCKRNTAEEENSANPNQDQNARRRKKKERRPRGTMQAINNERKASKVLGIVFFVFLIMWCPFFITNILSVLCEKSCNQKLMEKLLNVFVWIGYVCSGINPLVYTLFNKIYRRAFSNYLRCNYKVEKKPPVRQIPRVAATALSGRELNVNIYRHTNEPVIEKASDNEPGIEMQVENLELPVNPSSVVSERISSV

5-HT1D = 5-HT1D (Homo sapiens, UniProt P28221); assay: 5-HT receptor activity panel (Table 3); type: cell-based; details: Table 3
5-HT1E = 5-HT1E (Homo sapiens, UniProt P28566); assay: 5-HT receptor activity panel (Table 3); type: cell-based
5-HT1F = target: T3, 5-HT1F (Homo sapiens, UniProt P30939); assay: 5-HT receptor activity panel (Table 3); type: cell-based
T3 sequence (P30939 1-366): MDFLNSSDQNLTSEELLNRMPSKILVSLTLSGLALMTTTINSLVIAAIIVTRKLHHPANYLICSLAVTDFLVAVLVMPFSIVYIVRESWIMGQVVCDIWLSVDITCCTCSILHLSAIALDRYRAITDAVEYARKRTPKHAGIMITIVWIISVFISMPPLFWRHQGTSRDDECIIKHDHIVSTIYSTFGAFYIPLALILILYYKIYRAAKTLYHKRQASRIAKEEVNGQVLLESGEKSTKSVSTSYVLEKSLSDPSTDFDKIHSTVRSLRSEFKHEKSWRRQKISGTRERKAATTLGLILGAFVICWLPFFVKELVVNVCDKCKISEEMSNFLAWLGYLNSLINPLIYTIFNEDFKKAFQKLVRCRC

5-HT5A = 5-HT5A (Homo sapiens, UniProt P47898); assay: 5-HT receptor activity panel (Table 3); type: cell-based; details: Table 3
5-HT7 = 5-HT7 (Homo sapiens, UniProt P34969); assay: 5-HT receptor activity panel (Table 3); type: cell-based
[1] = target: T4, human ether-a-go-go-related gene (hERG) K+ channel (Homo sapiens, UniProt Q12809); assay: Eurofins hERG Qube APC Assay; type: cell-based; details: for IC50 (hERG)/EC50 (5-HT2A) ratio: Table 4
T4 construct: Eurofins
From the text: As used herein and unless otherwise specified, the term “hERG risk” refers to the risk of a compound potentially inhibiting the human ether-a-go-go-related gene (hERG) K^+ channel, thereby leading to QT prolongation.
As a result of, many compounds disclosed in Table 1 and Table 2 were screened for the potential of “hERG risk” using pharmacological assays (e.g. Eurofins™ hERG Qube APC Assay). […].

[2] = in vitro hepatocyte clearance, human; type: in vitro ADME; details: Human hepatocytes; for hepatocyte CLint: read-out: In vitro Clint (μL/min/10^6 cells); for half-life: read-out: In vitro T1/2; for CLint scaled: read-out: Scale-up Clint
Description: (§1) Additional experimentation was performed on compound 109. Table 6 summarizes, among other things, the anticipated hepatic clearance of compound 109 in various species, as specified in Table 6 and as determined by calculating the in vitro hepatocyte clearance over time and scaling such rate with such species' hepatocyte count and the anticipated liver blood flow rate in such species.

hepatocyte [3] = assay: in vitro hepatocyte clearance, human; type: in vitro ADME; details: Human
Description: as §1

[4] = in vitro hepatocyte clearance, monkey; type: in vitro ADME; details: Monkey hepatocytes; for hepatocyte CLint: read-out: In vitro Clint (μL/min/10^6 cells); for half-life: read-out: In vitro T1/2; for CLint scaled: read-out: Scale-up Clint
Description: as §1

hepatocyte [5] = assay: in vitro hepatocyte clearance, monkey; type: in vitro ADME; details: Monkey
Description: as §1

[6] = in vitro hepatocyte clearance, dog; type: in vitro ADME; details: for hepatocyte CLint / half-life: Dog hepatocytes; for hepatocyte CLint: read-out: In vitro Clint (μL/min/10^6 cells); for half-life: read-out: In vitro T1/2; for CLint scaled: dog, hepatocytes, read-out: Scale-up Clint
Description: as §1

hepatocyte [7] = assay: in vitro hepatocyte clearance, dog; type: in vitro ADME; details: Dog
Description: as §1

[8] = in vitro hepatocyte clearance, rat; type: in vitro ADME; details: for hepatocyte CLint / half-life: Rat hepatocytes; for hepatocyte CLint: read-out: In vitro Clint (μL/min/10^6 cells); for half-life: read-out: In vitro T1/2; for CLint scaled: rat, hepatocytes, read-out: Scale-up Clint
Description: as §1

hepatocyte [9] = assay: in vitro hepatocyte clearance, rat; type: in vitro ADME; details: Rat
Description: as §1

mice = assay: head-twitch response (HTR) in mice; type: in vivo, male C57BL/6J mice; details: for ED50: Mus musculus
Description: As used herein and unless otherwise specified, the term “HTR” refers to head-twitch response, which is a measurement of 5-HT2A activation in vivo.
As used herein and unless otherwise specified, the term “mice” refers to male C57BL/6J mice (6-8 weeks old).
HTR was assessed using a head-mounted neodymium magnet and a magnetometer detection coil, as described in Halberstadt et al., Psychopharmacology (Berl.), 2013, 227(4): 727-739. Table 8 below summarizes the ED50 in head twitch in mice of various compounds disclosed herein as compared to psilocybin. FIG. 3 illustrates the HTR relative to dose for compound 109: […]

[10] = Table 2, at least three replicate trials, read-out: 5-HT2C BRET EC50
[11] = Table 3 panel, read-out: 5-HT2C EC50

Chain of 5-HT5A (P47898 whole entry, species assumed): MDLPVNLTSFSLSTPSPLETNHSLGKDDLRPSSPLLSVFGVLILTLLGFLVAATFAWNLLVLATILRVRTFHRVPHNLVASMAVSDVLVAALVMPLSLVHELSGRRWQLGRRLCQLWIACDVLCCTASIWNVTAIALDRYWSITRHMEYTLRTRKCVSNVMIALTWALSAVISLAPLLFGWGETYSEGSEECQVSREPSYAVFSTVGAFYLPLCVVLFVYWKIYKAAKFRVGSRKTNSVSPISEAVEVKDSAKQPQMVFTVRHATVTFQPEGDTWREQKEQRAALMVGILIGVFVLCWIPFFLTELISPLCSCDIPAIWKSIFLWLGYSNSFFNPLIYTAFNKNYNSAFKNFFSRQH
Chain of 5-HT7 (P34969 whole entry, species assumed): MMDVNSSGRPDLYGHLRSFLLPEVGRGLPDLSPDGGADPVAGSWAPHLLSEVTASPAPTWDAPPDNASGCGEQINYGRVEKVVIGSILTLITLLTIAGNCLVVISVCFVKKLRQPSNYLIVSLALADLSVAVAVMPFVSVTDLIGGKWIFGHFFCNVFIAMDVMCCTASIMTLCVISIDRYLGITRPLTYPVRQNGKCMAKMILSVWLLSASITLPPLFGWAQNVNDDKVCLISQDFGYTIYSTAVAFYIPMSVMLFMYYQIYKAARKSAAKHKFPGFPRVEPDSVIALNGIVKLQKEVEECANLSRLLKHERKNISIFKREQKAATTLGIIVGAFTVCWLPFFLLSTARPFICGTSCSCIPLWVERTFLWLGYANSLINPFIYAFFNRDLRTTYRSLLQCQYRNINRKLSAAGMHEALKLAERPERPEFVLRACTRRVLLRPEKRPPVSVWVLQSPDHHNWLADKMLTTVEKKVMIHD
Chain of 5-HT1E (P28566 whole entry, species assumed): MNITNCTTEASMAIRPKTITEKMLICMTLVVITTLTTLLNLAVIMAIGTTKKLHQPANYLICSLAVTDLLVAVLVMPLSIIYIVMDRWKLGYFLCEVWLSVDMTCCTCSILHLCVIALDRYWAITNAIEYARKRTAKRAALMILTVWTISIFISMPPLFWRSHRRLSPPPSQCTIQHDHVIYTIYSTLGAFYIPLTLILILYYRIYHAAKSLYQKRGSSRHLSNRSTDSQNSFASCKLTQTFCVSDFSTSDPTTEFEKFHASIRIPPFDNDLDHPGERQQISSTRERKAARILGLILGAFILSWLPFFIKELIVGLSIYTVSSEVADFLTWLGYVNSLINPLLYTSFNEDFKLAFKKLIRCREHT
Chain of 5-HT1D (P28221 whole entry, species assumed): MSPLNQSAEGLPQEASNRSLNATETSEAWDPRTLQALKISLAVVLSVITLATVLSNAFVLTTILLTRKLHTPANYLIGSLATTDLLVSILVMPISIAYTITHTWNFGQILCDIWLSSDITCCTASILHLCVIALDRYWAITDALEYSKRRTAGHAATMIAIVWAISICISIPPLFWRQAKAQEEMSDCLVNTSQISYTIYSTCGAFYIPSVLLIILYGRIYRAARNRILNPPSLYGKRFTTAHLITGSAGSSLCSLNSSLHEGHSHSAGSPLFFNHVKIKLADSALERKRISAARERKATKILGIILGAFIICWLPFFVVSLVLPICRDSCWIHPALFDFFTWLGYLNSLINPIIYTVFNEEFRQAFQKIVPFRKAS
T1 sequence (P41595 whole entry): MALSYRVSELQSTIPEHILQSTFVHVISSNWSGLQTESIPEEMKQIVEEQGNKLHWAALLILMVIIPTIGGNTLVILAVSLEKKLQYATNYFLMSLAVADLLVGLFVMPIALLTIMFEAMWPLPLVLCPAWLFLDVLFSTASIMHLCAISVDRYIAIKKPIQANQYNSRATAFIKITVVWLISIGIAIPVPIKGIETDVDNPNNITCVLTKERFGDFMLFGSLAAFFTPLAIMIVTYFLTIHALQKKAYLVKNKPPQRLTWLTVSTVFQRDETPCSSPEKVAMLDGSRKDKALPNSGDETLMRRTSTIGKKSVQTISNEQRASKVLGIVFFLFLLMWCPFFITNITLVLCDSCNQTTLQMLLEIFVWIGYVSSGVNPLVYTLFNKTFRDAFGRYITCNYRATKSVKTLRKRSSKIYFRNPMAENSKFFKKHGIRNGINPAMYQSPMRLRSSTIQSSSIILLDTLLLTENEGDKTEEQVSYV
T4 sequence (Q12809 whole entry): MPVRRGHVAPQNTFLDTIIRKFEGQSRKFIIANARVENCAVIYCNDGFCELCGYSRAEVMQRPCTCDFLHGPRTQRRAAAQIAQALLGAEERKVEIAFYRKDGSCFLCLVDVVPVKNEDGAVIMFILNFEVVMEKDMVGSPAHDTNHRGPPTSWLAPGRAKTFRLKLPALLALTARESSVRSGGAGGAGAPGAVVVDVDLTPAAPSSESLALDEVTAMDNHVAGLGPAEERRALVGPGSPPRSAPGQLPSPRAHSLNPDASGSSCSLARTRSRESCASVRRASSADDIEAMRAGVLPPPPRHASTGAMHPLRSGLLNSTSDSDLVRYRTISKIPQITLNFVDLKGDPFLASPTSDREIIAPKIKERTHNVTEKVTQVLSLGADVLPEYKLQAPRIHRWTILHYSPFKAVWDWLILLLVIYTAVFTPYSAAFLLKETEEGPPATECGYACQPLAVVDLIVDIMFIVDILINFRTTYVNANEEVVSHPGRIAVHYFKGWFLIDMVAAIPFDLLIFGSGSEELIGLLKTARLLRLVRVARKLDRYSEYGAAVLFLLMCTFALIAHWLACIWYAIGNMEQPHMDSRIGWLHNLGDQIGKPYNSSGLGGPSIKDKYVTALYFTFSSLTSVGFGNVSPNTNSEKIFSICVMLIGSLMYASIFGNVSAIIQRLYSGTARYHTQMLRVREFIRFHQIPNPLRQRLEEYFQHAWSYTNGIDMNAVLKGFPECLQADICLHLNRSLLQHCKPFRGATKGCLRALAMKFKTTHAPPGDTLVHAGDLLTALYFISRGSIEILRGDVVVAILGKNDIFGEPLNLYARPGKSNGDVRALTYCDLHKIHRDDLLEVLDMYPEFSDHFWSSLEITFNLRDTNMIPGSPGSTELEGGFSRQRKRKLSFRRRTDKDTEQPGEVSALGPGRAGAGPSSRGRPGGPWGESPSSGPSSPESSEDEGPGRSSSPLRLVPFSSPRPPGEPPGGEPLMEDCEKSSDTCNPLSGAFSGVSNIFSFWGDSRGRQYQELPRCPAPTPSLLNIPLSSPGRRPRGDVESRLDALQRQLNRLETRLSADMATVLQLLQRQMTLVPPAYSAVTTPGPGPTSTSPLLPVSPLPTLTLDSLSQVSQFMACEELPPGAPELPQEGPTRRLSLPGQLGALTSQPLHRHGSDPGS

For COc1cc(C(F)(F)F)ccc1CCNCc1ccccc1O [Cpd #93], the EC50 (5-HT2B receptor; 5-HT2B BRET EC50 (nM), Table 2, at least three replicate trials) was 62.3 nM and 96.2 nM, the EC50 (5-HT2B receptor; 5-HT2B EC50, nM, Table 3 panel) was 64.2 nM and the “5-HT2B BRET Eff %” value (5-HT2B receptor; Table 2) was 53% and 52%. The “5-HT2B Eff, %” value (5-HT2B receptor; Table 3 panel) was 50%, the pEC50 (5-HT2C receptor; [10]) was 8.96 and 8.89 and the “5-HT2C BRET Eff %” value (5-HT2C receptor; Table 2) was 105% and 103%. The “5-HT2C Eff, %” value (5-HT2C receptor; Table 3 panel) was 99%, the pEC50 (5-HT2C receptor; [11]) was 8.82 and the “5-HT1D EC50, nM” value (5-HT1D) was “Not active”. The pEC50 (5-HT1E) was 4.15, the “5-HT1E Eff, %” value (5-HT1E; Table 3) was 211% and the pEC50 (5-HT1F) was 5.09. For the same compound, the “5-HT1F Eff, %” value (5-HT1F; Table 3) was 69%, the “5-HT5A EC50, nM” value (5-HT5A) was “Not active” and the pEC50 (5-HT7) was 9.30. The “5-HT7 Eff, %” value (5-HT7; Table 3) was −12%, the pIC50 [1] was 6.21 and the “IC50 (hERG)/EC50 (5-HT2A) ratio” value [1] was 517. The hepatocyte CLint [2] was 54.8 µL/min/1e6 cells, the half-life [2] was 25.3 min and the CLint scaled [2] was 140 mL/min/kg. The “Predicted hepatic CL” value (hepatocyte [3]) was 18.03 mL/min/kg, the hepatocyte CLint [4] was 467 µL/min/1e6 cells and the half-life [4] was 2.97 min. The CLint scaled [4] was 1680 mL/min/kg, the “Predicted hepatic CL” value (hepatocyte [5]) was 42.50 mL/min/kg and the hepatocyte CLint [6] was 337 µL/min/1e6 cells. The half-life [6] was 4.11 min, the CLint scaled [6] was 2320 mL/min/kg and the “Predicted hepatic CL” value (hepatocyte [7]) was 30.49 mL/min/kg. For the same compound, the hepatocyte CLint [8] was less than 614 µL/min/1e6 cells, the half-life [8] was greater than 2.26 min and the CLint scaled [8] was less than 2870 mL/min/kg. For the same compound, the “Predicted hepatic CL” value (hepatocyte [9]) was less than 54.16 mL/min/kg and the ED50 (mice; mice) was 0.28 mg/kg.

For CSc1ccccc1CNCCc1ccc(C#N)cc1O [Cpd #109], the pEC50 (5-HT2B receptor; Table 2, at least three replicate trials, read-out: 5-HT2B BRET EC50) was 5.50, the “5-HT2B BRET Eff %” value (5-HT2B receptor; Table 2) was 95% and the “5-HT2B Eff, %” value (5-HT2B receptor; Table 3 panel) was 84%. The pEC50 (5-HT2B receptor; Table 3 panel, read-out: 5-HT2B EC50) was 5.51, the pEC50 (5-HT2C receptor; [10]) was 6.60 and the “5-HT2C BRET Eff %” value (5-HT2C receptor; Table 2) was 114%. For the same compound, the “5-HT2C Eff, %” value (5-HT2C receptor; Table 3 panel) was 110%, the pEC50 (5-HT2C receptor; [11]) was 6.65 and the “5-HT1D Eff, %” value (5-HT1D) was 6%. The pEC50 (5-HT1D; read-out: 5-HT1D EC50) was 6.42, the “5-HT1E Eff, %” value (5-HT1E; Table 3) was 12% and the pEC50 (5-HT1E; Table 3, read-out: 5-HT1E EC50) was 6.09. For the same compound, the “5-HT1F Eff, %” value (5-HT1F; Table 3) was 12%, the pEC50 (5-HT1F; Table 3, read-out: 5-HT1F EC50) was 6.24 and the “5-HT5A Eff, %” value (5-HT5A) was −133%. The pEC50 (5-HT5A; read-out: 5-HT5A EC50) was 4.91, the “5-HT7 EC50, nM” value (5-HT7; Table 3) was “Not active” and the pIC50 [1] was 5.54. The “IC50 (hERG)/EC50 (5-HT2A) ratio” value [1] was 604, the hepatocyte CLint [2] was 609 µL/min/1e6 cells and the half-life [2] was 2.28 min. For the same compound, the CLint scaled [2] was 1550 mL/min/kg, the “Hepatic Extraction Ratio (E)” value (hepatocyte [3]) was 0.99 and the “Predicted hepatic CL” value (hepatocyte [3]) was 20.43 mL/min/kg. For the same compound, the hepatocyte CLint [4] was 499 µL/min/1e6 cells, the half-life [4] was 2.78 min and the CLint scaled [4] was 1800 mL/min/kg. For the same compound, the “Hepatic Extraction Ratio (E)” value (hepatocyte [5]) was 0.98, the “Predicted hepatic CL” value (hepatocyte [5]) was 42.57 mL/min/kg and the hepatocyte CLint [6] was 199 µL/min/1e6 cells. The half-life [6] was 6.96 min, the CLint scaled [6] was 1370 mL/min/kg and the “Hepatic Extraction Ratio (E)” value (hepatocyte [7]) was 0.98. For the same compound, the “Predicted hepatic CL” value (hepatocyte [7]) was 30.22 mL/min/kg, the hepatocyte CLint [8] was 234 µL/min/1e6 cells and the half-life [8] was 5.93 min. For the same compound, the CLint scaled [8] was 1090 mL/min/kg, the “Hepatic Extraction Ratio (E)” value (hepatocyte [9]) was 0.95 and the “Predicted hepatic CL” value (hepatocyte [9]) was 52.55 mL/min/kg. The ED50 (mice; mice) was 2.69 mg/kg, the “central hallucinogenic (or psychedelic) effects compared with psilocybin” value (mice; conclusion from Tables 6-8) was “less central hallucinogenic (or psychedelic) effects than traditional psychedelic compounds such as psilocybin” and the “duration of psychedelic effect (HTR over time)” value (mice; mice, FIG. 4, different doses) was “less than 30 minutes”.
